Among the data in patent US10675251B2, “Particles containing branched polymers” (The University of Liverpool, priority 2014, dated 2020) are drug loading achieved values, retold here.

A short description of the series: Drug loading (encapsulation) in co-nanoprecipitated particles. It counts as physicochemical. On the procedure:
During a typical nanoparticle preparation, 5.5 mL of a 1 mg/mL acetone solution of efavirenz, ritonavir or lopinavir is added to a vial and left to evaporate overnight. To this vial 25 mg of the branched polymer and 25 mg of the polymer diblock were added and dissolved in 10 mL of acetone during 6-8 hours to ensure complete solubilisation. 1 mL of the 5 mg/mL solution of polymers and dissolved drug was added to 5 mL of stirring distilled water (500 rpm) and left for 24 hours for complete acetone evaporation (final concentration of polymer 1 mg/mL). During a typical nanoparticle preparation 5.5 mL of a 1 mg/mL acetone solution of irinotecan was added to a vial and left to evaporate overnight. To this vial, 25 mg of the branched polymer and 25 mg of the polymer diblock were added and dissolved in 10 mL of acetone during 6-8 hours to ensure complete solubilisation. 1 mL of the 5 mg/mL solution of polymers and dissolved drug was added to 5 mL of stirring water (500 rpm) and left for 24 hours for complete acetone evaporation.

In the case of `CCc1c2c(nc3ccc(OC(=O)N4CCC(N5CCCCC5)CC4)cc13)-c1cc3c(c(=O)n1C2)COC(=O)[C@]3(O)CC` [Irinotecan], the drug loading achieved result was “effectively encapsulated at 10 wt % or 15 wt %”.

In turn, `O=C1Nc2ccc(Cl)cc2[C@@](C#CC2CC2)(C(F)(F)F)O1` [Efavirenz] came in with a drug loading achieved of 25 wt %.
